Here are results for 64 compounds from patent US11702417B2, “Compounds for improving mRNA splicing” (The General Hospital Corporation, priority 2015, dated 2023).

Like-named read-outs stand apart in the source and are kept apart here.

For this assay, the system named is FD (familial dysautomonia) IKBKAP minigene, exon 20 inclusion, in HEK293T cells. As to the kind of experiment: Primary splicing assay (FD IKBKAP minigene, Firefly/Renilla luciferase reporter in HEK293T). It counts as cell-based, human. The following applies: for EC (maximum kinetin efficacy) / Emax: Homo sapiens, HEK-293T; for EC (maximum kinetin efficacy): HEK293T, read-out: ECk (compound concentration at which the maximum kinetin efficacy (200 μM) is reached). The protocol:
As used herein, the expression “ECk” refers to the compound concentration at which the maximum kinetin efficacy (200 μM) is reached.
Splicing analysis was made possible by using an FD (familial dysautomonia) IKBKAP minigene which contained exon 19 through exon 21, including intervening introns, and also the T→C Thymine to cytosine transition located 6 base-pairs from the end of IKBKAP exon 20; See SEQ ID NO:3 for the complete sequence of plasmid pcDNA3.1/V5HisTOPO with Renilla-Familial Dysautonomia minigene-Firefly. Firefly luciferase (SEQ ID NO:14) was utilized as a splicing reporter, located downstream of exon 21, and Renilla luciferase (SEQ ID NO:13) was used as a control, located upstream of exon 19. The sequence of exon 19 is presented as SEQ ID NO:7; the Intron between Exon 19 and Exon 20 is SEQ ID NO:8; exon 20 is SEQ ID NO:9; the intron between […]; exon 21 is SEQ ID NO: 11, and the spliced sequence of exons 19-20-21 is SEQ ID NO:12. HEK293T cells were plated in a 6-well plate 24 hours prior to transfection. Transfection was carried out using a mixture of Opti-MEM (GIBCO ref. 31985), IKBKAP minigene, and Fugene HID (PROMEGA ref. E2311), incubated in DMEM media containing HEK293T cells at 37° C. The ratio of Opti-MEM, minigene, and Fugene was kept at approximately 9:1.5:1, with a total volume of 150 μL of transfection mixture applied per well.
After 4 hours of transfection, the cells were then plated in a 96-well plate coated with poly-L-lysine (SIGMA cat.P4707) for treatment scheduled 24 hours later. […] After 24 hours of treatment, cells were washed in the poly-L-lysine coated 96-well plate using PBS and subsequently harvested using Passive Lysis Buffer (Promega cat.E196). Cell lysate was transferred to a black and white 96-well plate and analyzed for splicing correction using a Glomax luminometer (PROMEGA GloMax® 96 Microplate Luminometer w/Dual Injectors cat.E6521) and Promega Dual Glo Firefly and Stop and Glo Renilla reagents (Cat.E196). The compound's ability to correct splicing and promote exon 20 inclusion was marked by an increase in Firefly signal. Renilla signal, which is independent of exon 20 inclusion, was used to correct for cell number. Using the ratio of Firefly to Renilla signal, a dose response curve was produced, which referenced kinetin and DMSO Firefly/Renilla ratios as positive and negative controls, respectively.
(In general: A reporter such as luciferase makes a cellular process visible.)

Setting [1] is: Firefly/Renilla ratio, 24 hours of treatment.
Setting [2] is: max efficacy in Primary Assay, Firefly/Renilla ratio, kinetin and DMSO as positive and negative controls, 24 hours of treatment, read-out: Emax (%).
Where [3] appears, read: max efficacy, value marked (RT-PCR), footnote a: Firefly inhibitor, read-out: Emax (%) (RT-PCR).

In general, Emax refers to the size of the effect at its maximum, as opposed to the concentration needed. `Cc1cc2c(NCc3ccco3)nc(Cl)nc2[nH]1` [(115)]: under setting [1], the EC (maximum kinetin efficacy) worked out at 5.92 µM. The Emax under setting [2] came to 174%.

As to `Clc1nc(NCc2ccco2)c2[nH]cnc2n1` [(458)], the Emax under setting [2] was 73.1%.

Regarding `FC(F)COc1nc2c(NCc3cscn3)nc(Cl)nc2[nH]1` [(395)], the EC (maximum kinetin efficacy) under setting [1] is 1.8 µM. Also, under setting [2], the Emax was 180%.

On to `Clc1nc(NCc2ccncn2)c2nc(C3CCC3)[nH]c2n1` [(236)], for which the Emax under setting [2] came to 83%.

In the case of `Cc1nc2c(NCc3ccco3)nc(Cl)nc2[nH]1` [(90)], the EC (maximum kinetin efficacy) under setting [1] turned out to be 11.8 µM. Further, the Emax under setting [2] was 159%.

`Fc1ccccc1CNc1nc(Cl)nc2[nH]ccc12` [(354)]: the Emax under setting [2] came to 57.5%.

For the compound `C[C@@H](C#N)n1ccc2c(NCc3ccco3)nc(Cl)nc21` [(216)], the Emax under setting [2] came to 16%.

For the compound `Clc1nc(NCc2csnn2)c2cc[nH]c2n1` [(498)], the maximal effect (Emax) under setting [2] was determined as 37.7%.

Turning to `Cn1cnc2nc(Cl)nc(NCc3ccncn3)c21` [(316)], the EC (maximum kinetin efficacy) under setting [1] was 7.09 µM. For the same compound, under setting [2], the Emax came out at 108%.

With `c1cncc(CCNc2ncnc3[nH]cnc23)c1` [(41)], under setting [2], the Emax is 35%.

Turning to `CC(C)(O)Cn1ccc2c(NCc3ccco3)nc(Cl)nc21` [(155)], under setting [1], the EC (maximum kinetin efficacy) was 22.2 µM. In addition, the Emax (max efficacy in Primary Assay, value flagged footnote a: Firefly inhibitor, read-out: Emax (%)) stood at 151%.

`CNC(=O)c1cc2c(NCc3ccco3)nc(Cl)nc2[nH]1` [(187)]: under setting [2], the Emax worked out at 111%.

For the compound `Clc1nc(NCc2ccco2)c2nc(OCCc3ccccc3)[nH]c2n1` [(492)], the Emax under setting [2] was 54.5%.

With `Fc1nc(NCc2nccs2)c2nc[nH]c2n1` [(367)], the Emax under setting [2] came out at 94%.

On to `CNC(=O)c1nc2c(NCc3ccco3)nc(Cl)nc2[nH]1` [(262)], for which the EC (maximum kinetin efficacy) under setting [1] is 28.4 µM. Further, under setting [2], the Emax was 64%.

Take `FC1(F)CC(COc2nc3c(NCc4cscn4)nc(Cl)nc3[nH]2)C1` [(488)]: the EC (maximum kinetin efficacy) under setting [1] was determined as 1.02 µM. For the same compound, under setting [2], the Emax was 206%.

As to `Clc1nc(NCc2ccco2)c2nc(C3CC3)[nH]c2n1` [(95)], the EC (maximum kinetin efficacy) under setting [1] amounted to 122 µM. Moreover, the Emax under setting [2] worked out at 103%.

Take `Clc1cc(NCc2ccncc2)c2nc[nH]c2n1` [(251)]: under setting [1], the EC (maximum kinetin efficacy) was found to be 3.65 µM. Moreover, under setting [2], the Emax worked out at 258%.

`Clc1nc(NCc2ccncn2)c2nc(OCC3CCC3)[nH]c2n1` [(326)]: the EC (maximum kinetin efficacy) under setting [1] came to 0.07 µM. For the same compound, the Emax under setting [2] was 287%.

Regarding `Clc1nc(NCc2nccs2)c2nc(OCC3CCC3)[nH]c2n1` [(324)], under setting [1], the EC (maximum kinetin efficacy) is 0.16 µM. In addition, the Emax under setting [2] was 226%.

`Cc1cc(CNc2nc(Cl)nc3[nH]cnc23)ccn1` [(196)]: the Emax under setting [2] turned out to be 7%.

Consider `Clc1nc(NCc2nccs2)c2nc(OCc3nccs3)[nH]c2n1` [(329)], for which the EC (maximum kinetin efficacy) under setting [1] came to 1.97 µM. The Emax under setting [2] worked out at 209%.

Take `NC(=O)c1cc2c(NCc3ccco3)nc(Cl)nc2[nH]1` [(188)]: the EC (maximum kinetin efficacy) under setting [1] was 11.7 µM. Under setting [2], the Emax turned out to be 145%.

Regarding `CC(C)(C)OC(=O)N1CC(Oc2nc3c(NCc4ccncc4)nc(Cl)nc3[nH]2)C1` [(327)], under setting [1], the EC (maximum kinetin efficacy) amounted to 4.64 µM. In addition, the Emax under setting [2] was 145%.

For `Cc1nc2ncnc(NCc3ccco3)c2[nH]1` [(87)], the Emax under setting [2] was determined as 46%.

For the compound `Clc1nc(NCc2ccco2)c2nc(-c3cccnc3)[nH]c2n1` [(88)], the Emax under setting [2] came to 33%.

As for `Clc1nc2c(c(NCc3ccco3)n1)COC2` [(503)], the Emax under setting [2] was determined as 27.2%.

Regarding `CC(F)(F)COc1nc2c(NCc3ccco3)nc(Cl)nc2[nH]1` [(390)], under setting [1], the EC (maximum kinetin efficacy) is 0.74 µM. The Emax under setting [2] came to 201%.

`OCCOc1nc2c(NCc3ccncc3)nc(Cl)nc2[nH]1` [(315)]: the EC (maximum kinetin efficacy) under setting [1] came out at 2.52 µM. Besides, the Emax under setting [2] was 165%.

For `Clc1nc(NCc2ccco2)c2c(CN3CCCC3)c[nH]c2n1` [(173)], under setting [2], the Emax stood at 30%.

For `Cc1cc2c(NCc3nccs3)nc(Cl)nc2[nH]1` [(147)], the Emax under setting [2] came out at 80%.

On to `Cc1cnccc1CNc1nc(Cl)nc2[nH]cnc12` [(268)], for which, under setting [2], the Emax is 19%.

Turning to `Clc1cc(NCc2nccs2)n2nccc2n1` [(325)], under setting [2], the Emax was 20%.

In the case of `Cc1cc2c(NCc3ccncn3)nc(Cl)nc2[nH]1` [(136)], under setting [1], the EC (maximum kinetin efficacy) came out at 7.52 µM. Further, the Emax under setting [2] amounted to 143%.

Regarding `CC(=O)N1Cc2nc(Cl)nc(NCc3nccs3)c2C1` [(510)], under setting [2], the Emax is 20%.

`Clc1nc(NCc2ccco2)c2ccsc2n1` [(56)]: the EC (maximum kinetin efficacy) under setting [1] turned out to be 8.23 µM. Also, under setting [2], the Emax was determined as 152%.

For the compound `CC(F)(F)COc1nc2c(NCc3nccs3)nc(Cl)nc2[nH]1` [(388)], the EC (maximum kinetin efficacy) under setting [1] turned out to be 0.68 µM. Also, under setting [2], the Emax came to 215%.

In the case of `Clc1nc(NCc2cc3ccccc3o2)c2nc[nH]c2n1` [(164)], under setting [2], the Emax turned out to be 68%.

Regarding `Clc1nc(NCc2cscn2)c2nc(OCC3CCO3)[nH]c2n1` (stereo not drawn) [(493)], the EC (maximum kinetin efficacy) under setting [1] was determined as 3.05 µM. In addition, the Emax under setting [2] amounted to 168%.

For `Clc1nc(NCc2cncs2)c2cc[nH]c2n1` [(373)], the Emax under setting [2] worked out at 25.1%.

As to `CN(C)CCn1ccc2c(NCc3ccco3)nc(Cl)nc21` [(206)], under setting [2], the Emax was 27%.

Take `COC(=O)COc1nc2c(NCc3nccs3)nc(Cl)nc2[nH]1` [(504)]: the Emax under setting [2] is 80%.

Regarding `Ic1nc(NCc2ccco2)c2nc[nH]c2n1` [(264)], the Emax under setting [2] was determined as 44%.

For `CN(C)C(=O)Cn1ccc2c(NCc3ccco3)nc(Cl)nc21` [(153)], the Emax under setting [2] was 20%.

In the case of `COC(=O)c1nc2c(NCc3ccco3)nc(Cl)nc2[nH]1` [(232)], the Emax under setting [2] stood at 59%.

`Clc1nc(NCc2cscn2)c2nc(OC3COC3)[nH]c2n1` [(497)]: under setting [1], the EC (maximum kinetin efficacy) is 5.56 µM. Under setting [2], the Emax stood at 120%.

As to `COc1nc2c(NCc3ccncc3)nc(Cl)nc2[nH]1` [(184)], under setting [1], the EC (maximum kinetin efficacy) was 3.62 µM. Also, the Emax under setting [2] amounted to 169%.

With `O=C1OCCN1CCOc1nc2c(NCc3nccs3)nc(Cl)nc2[nH]1` [(394)], the Emax under setting [2] was determined as 4.8%.

With `Clc1nc(NCc2ccco2)c2ncsc2n1` [(253)], the EC (maximum kinetin efficacy) under setting [1] was 11.8 µM. Under setting [2], the Emax amounted to 187%.

Regarding `Cc1c[nH]c2nc(Cl)nc(NCc3ccco3)c12` [(84)], under setting [3], the Emax is 251%. Besides, the “ECk (RT-PCR)” value (determined by RT-PCR, footnote a Firefly inhibitor, footnote b Renilla interference) was 1 to 10 µM.

Turning to `Fc1c[nH]c2nc(Cl)nc(NCc3ccco3)c12` [(81)], under setting [1], the EC (maximum kinetin efficacy) was 3.08 µM.

In the case of `CNC(=O)c1c[nH]c2nc(Cl)nc(NCc3ccco3)c12` [(172)], under setting [2], the Emax turned out to be 61%.

Consider `CC(C)Oc1nc2c(NCc3ccco3)nc(Cl)nc2[nH]1` [(239)], for which, under setting [1], the EC (maximum kinetin efficacy) is 2.6 µM. The Emax under setting [2] is 147%.

Take `Fc1cc(CNc2nc(Cl)nc3[nH]ccc23)ccn1` [(487)]: under setting [1], the EC (maximum kinetin efficacy) was 6.1 µM. In addition, under setting [2], the Emax was determined as 114%.

In the case of `CC(C)(C)OCCOc1nc2c(NCc3nccs3)nc(Cl)nc2[nH]1` [(482)], the EC (maximum kinetin efficacy) under setting [1] stood at 11.1 µM. Also, under setting [2], the Emax turned out to be 99.1%.

Turning to `FC(F)(F)c1ccc(CCNc2ncnc3[nH]cnc23)cc1` [(26)], the maximum response (Emax) under setting [2] stood at 66%.

On to `Cc1[nH]c2nc(Cl)nc(NCc3ccncc3)c2c1F` [(201)], for which, under setting [2], the Emax was 27%.

Consider `Clc1nc(NCc2cnccn2)c2cc[nH]c2n1` [(353)], for which the Emax under setting [2] came out at 78%.

With `Clc1nc(NCc2ccncc2)c2nc(OC3CCC3)[nH]c2n1` [(294)], under setting [1], the EC (maximum kinetin efficacy) was determined as 0.44 µM. Under setting [2], the Emax stood at 183%.

With `c1nc(NCc2ccoc2)c2nc[nH]c2n1` [(465)], the Emax under setting [3] is 26.3%.

With `NC(=O)c1c[nH]c2nc(Cl)nc(NCc3ccco3)c12` [(165)], the Emax under setting [2] turned out to be 59%.

`CC(F)(F)COc1nc2c(NCc3cscn3)nc(Cl)nc2[nH]1` [(496)]: under setting [1], the EC (maximum kinetin efficacy) stood at 1.03 µM. The Emax under setting [2] was found to be 233%.

For the compound `c1nc2nc[nH]c(NC3CCCCCC3)c-2n1` [(512)], the Emax under setting [2] turned out to be 43.7%.

With `Cc1nc(NCc2ccco2)c2nc[nH]c2n1` [(45)], under setting [2], the Emax was determined as 56%.
